From patent US12049518B2, “Pharmacokinetics and cholecystokinin-2 receptor (CCK2R) targeting for diagnosis and therapy” (Medizinische Universitat Innsbruck, priority 2017, dated 2024)
Read-outs that look alike come from different tables or passages of the source. Where a SMILES comes first, the peptide text is derived from it. [ ]: non-standard residue; d: D form. The star is where a group is joined. DOTA = O=C(O)CN1CCN(CC(=O)O)CCN(CC(=O)*)CCN(CC(=O)O)CC1

How the values were obtained:
[1] = target: T1, human CCK2R (Homo sapiens, UniProt P32239); experiment: CCK2R competition binding assay against [125I]Tyr12-gastrin-I on A431-CCK2R cells; conditions: displacement of [125I]Tyr12-gastrin-I, A431-CCK2R cells, 1 h at RT; read-out: IC50
T1 construct: expressed in transfected cells; host or cells: A431 human epidermoid carcinoma cells (A431-CCK2R), plasmid pCR3.1, provided by Dr. Luigi Aloj
T1 sequence (P32239 1-447): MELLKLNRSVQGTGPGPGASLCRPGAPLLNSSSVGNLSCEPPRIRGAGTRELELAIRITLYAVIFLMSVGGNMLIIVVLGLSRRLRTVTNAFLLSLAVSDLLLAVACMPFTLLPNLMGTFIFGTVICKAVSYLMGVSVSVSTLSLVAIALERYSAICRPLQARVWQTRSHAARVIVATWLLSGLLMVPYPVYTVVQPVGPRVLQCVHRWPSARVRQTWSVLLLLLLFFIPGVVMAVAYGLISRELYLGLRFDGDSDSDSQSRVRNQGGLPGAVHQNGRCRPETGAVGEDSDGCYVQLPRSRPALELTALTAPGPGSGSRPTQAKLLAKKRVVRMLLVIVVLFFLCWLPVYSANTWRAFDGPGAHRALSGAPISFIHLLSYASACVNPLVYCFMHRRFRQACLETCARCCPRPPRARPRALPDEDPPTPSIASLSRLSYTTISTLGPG
Procedure: Affinity for CCK2R was studied in A431 human epidermoid carcinoma cells stably transfected with the plasmid pCR3.1 containing the full coding sequence for the human CCK2R (A431-CCK2R) kindly provided by Dr. Luigi Aloj (Aloj L et al., J Nucl Med 2004, 45: 485-494). […] Radioiodination of gastrin-1 was carried out using the chloramine-T method. Non-carrier-added [^125I-Tyr^12]gastrind was obtained by HPLC purification and stored in aliquots at −20° C. Binding assays were carried out in 96-well filter plates (MultiScreenHTS-FB, Merck Group, Darmstadt, Germany) pretreated with 10 mM TRIS/139 mM NaCl pH 7.4 (2×250 μl). For the assay a number of 200,000-400,000 A431-CCK2R cells per well was prepared in 35 mM HEPES buffer pH 7.4 containing 10 mM MgCl2, 14 μM bacitracin and 0.5% BSA (a hypotonic solution disturbing the integrity of the cell membranes). The cells were incubated in triplicates with increasing concentrations of the peptidomimetics (0.0003 to 10,000 nM, for example 0.001 to 1000 nM) and [^125I-Tyr^12]gastrin-I (20,000-60,000 cpm) for 1 h at RT. Incubation was interrupted by filtration of the medium and rapid rinsing with ice-cold 10 mM TRIS/139 mM NaCl pH 7.4 (2×200 μl) and the filters were counted in the gamma-counter. Half maximal inhibitory concentration (IC50) values were calculated following nonlinear regression with Origin software (Microcal Origin 6.1, Northampton, MA) and a representative assay was chosen for comparison.

[2] = cited from earlier work
[3] = biodistribution: uptake in normal tissues; assay type: in vivo, athymic BALB/c nude mice; conditions: female, athymic BALB/c nude, mouse, iv, total radioactivity
Procedure: Biodistribution studies evaluating the tumour uptake of the radiolabelled inventive CCK2R targeting peptide analogues were performed in 7-week-old female athymic BALB/c nude mice (Charles River, Sulzfeld, Germany). All animal experiments were conducted in compliance with the Austrian animal protection laws and with the approval of the Austrian Ministry of Science. For the induction of tumour xenografts, A431-CCK2R and A431-mock cells were injected subcutaneously in the right and left flank respectively (2 million cells in 200 μl). When tumours had reached a size of approximately 0.2 ml biodistribution studies were carried out. Groups of 4 mice were injected intravenously via a lateral tail vein with the peptidomimetics of the present invention, labelled with ^111In (approximately 0.2 MBq and 0.02 nmol peptidomimetic), with ^68Ga (approximately 0.8 MBq and 0.02-0.03 nmol peptidomimetic), with ^177Lu (approximately 0.5 MBq and 0.02 nmol peptidomimetic) or with ^99mTc (approximately 0.3 MBq and 0.02 nmol peptidomimetic). After a time period of 1 or 4 h post-injection (p.i.) the animals were sacrificed by cervical dislocation, tumours and other tissues (blood, lung, heart, muscle, bone, spleen, intestine, liver, kidneys, stomach, pancreas) were removed, weighed, and their radioactivity measured in the gamma counter. Results were expressed as percentage of injected activity per gram tissue (% IA/g) and tumour to organ activity ratios were calculated from the activity measured in the dissected tissues. In FIG. 4 the results of the biodistribution studies at 4 h p.i. are summarized for the ^111In-labelled peptidomimetics of the present invention in comparison with ^111In-DOTA-MGS1 and ^111In-DOTA-MGS4 (Klingler M et al., Eur J Nucl Med Mol Imaging 2017, 44: S228). In FIG. 5 the results for the model peptidomimetics of the present invention, DOTA-MGS5 and HYNIC-MGS5, radiolabelled with different radiometals are shown for different time points of 1 or 4 h p.i. […] The uptake in A431-mock tumour xenografts with values <1% IA/g was very low confirming the high receptor-specific tumour uptake. […] A combination of high stability and increased protein binding in vivo seems therefore to result in an optimal protection of the radioligand against enzymatic degradation in blood allowing reaching an extremely high tumour uptake.

[4] = tested on: serum proteins; experiment: protein binding to serum proteins (Sephadex G-50 size-exclusion chromatography); assay type: in vitro ADME; conditions: 37° C.
Procedure: Additionally, protein binding to serum proteins was investigated. For this purpose the ^111In-labelled peptidomimetics were incubated in duplicates in fresh human serum at 37° C. (500 pmol/mL) and analyzed after 4 and 24 h by Sephadex G-50 size-exclusion chromatography (GE Healthcare Illustra, Little Chalfont, UK). The percentage of protein binding was determined by measuring the column and the eluate in a 2480 Wizard 2 automatic gamma-counter (Perkin Elmer Life Sciences and Analytical Sciences, Turku, F).

[5] = in vivo, Nock et al. 2014; cited from earlier work

| IC50 [1] | tissue uptake ([3]; kidneys, 1 or 4 h p.i. (111In-labelled series: 4 h p.i.), read-out: kidney uptake) | tissue uptake ([3]; pancreas, CCK2R expressing organ, 1 or 4 h p.i., read-out: uptake in pancreas) | tissue uptake ([3]; stomach, CCK2R expressing organ, 1 or 4 h p.i., read-out: uptake in stomach) | fraction unbound at 4 h, 500 pmol/mL ([4]; fresh human serum, 4 h, read-out: Percentage of radioligand bound to serum proteins after 4 h incubation (converted)) | fraction unbound at 24 h, 500 pmol/mL ([4]; fresh human serum, 24 h, read-out: Percentage of radioligand bound to serum proteins after 24 h incubation (converted)) | Percentage of radioligand bound to serum proteins after 24 h incubation ([4]; human serum, 24 h) | SMILES | biological half-life in vivo [2] | intact radiopeptide 5 min after injection [5] |
| --- | --- | --- | --- | --- | --- | --- | --- | --- | --- |
| 0.9 ± 0.5 nM | – | – | – | – | – | – | CSCC[C@H](NC(=O)[C@H](Cc1c[nH]c2ccccc12)NC(=O)CNC(=O)[C@H](Cc1ccc(O)cc1)NC(=O)[C@H](C)NC(=O)[C@@H](CCC(=O)O)NC(=O)CN1CCN(CC(=O)O)CCN(CC(=O)O)CCN(CC(=O)O)CC1)C(=O)N[C@@H](CC(=O)O)C(=O)N[C@@H](Cc1ccccc1)C(N)=O [DOTA-MG11, [1,4,7,10-tetraazacyclodocecan-1,4,7,10-tetraacetic acid^0,D-Glu^1,DesGlu^2-6]minigastrin, reference compound] ({DOTA}-[dE]AYGWMDF-NH2) | below five | – |
| 0.4 ± 0.2 nM | 4 to 6 %ID/g | 2 to 3 %ID/g | 5 to 8 %ID/g | – | – | – | CCCC[C@@H](C(=O)N[C@@H](CC(=O)O)C(=O)N[C@@H](Cc1cccc2ccccc12)C(N)=O)N(C)C(=O)[C@H](Cc1c[nH]c2ccccc12)NC(=O)CNC(=O)[C@H](Cc1ccc(O)cc1)NC(=O)[C@H](C)NC(=O)[C@@H](CCC(=O)O)NC(=O)CN1CCN(CC(=O)O)CCN(CC(=O)O)CCN(CC(=O)O)CC1 [DOTA-MGS5, DOTA-DGlu-Ala-Tyr-Gly-Trp-(N-Me)Nle-Asp-1Nal-NH2] | – | – |
| – | – | – | – | 0.899 | 0.938 | < 10% | CSCC[C@H](NC(=O)[C@H](Cc1c[nH]c2ccccc12)NC(=O)CNC(=O)[C@H](Cc1ccc(O)cc1)NC(=O)[C@H](C)NC(=O)[C@@H](CCC(=O)O)NC(=O)CN1CCN(CC(=O)O)CCN(CC(=O)O)CCN(CC(=O)O)CC1)C(=O)N[C@@H](CC(=O)O)C(=O)N[C@@H](Cc1ccccc1)C(N)=O [^111In-DOTA-MG11, metal not drawn, reference compound] ({DOTA}-[dE]AYGWMDF-NH2) | – | 5% |
